Laboratory results taken from DBAASP.
In brackets after ≈: the same amount, converted by molar mass.

Legend:
Assay in all cases: ≥ marks a high value that may be exact or a test limit, other limits are often not marked, values filed in µg/mL are converted to µM
Escherichia coli BL21 = test system: Escherichia coli BL21
[1] = test system: Pseudomonas aeruginosa PAO1
[2] = test system: Streptococcus pyogenes M1T1 5448

Row | MIC (Escherichia coli BL21) | MIC [1] | MIC [2] | SMILES
1 | 16 µM (≈ 48.1 µg/mL) | 128 µM (≈ 385 µg/mL) | 4 µM (≈ 12 µg/mL) | CC[C@H](C)[C@H](NC(=O)[C@H](Cc1ccccc1)NC(=O)[C@H](C)NC(=O)[C@H](CCCCN)NC(=O)[C@H](CCCCN)NC(=O)CNC(=O)[C@H](CCCN=C(N)N)NC(=O)[C@H](CCCCN)NC(=O)[C@H](CCCN=C(N)N)NC(=O)[C@H](CC(C)C)NC(=O)[C@H](Cc1ccc(O)cc1)NC(=O)[C@H](CCC(=O)O)NC(=O)[C@H](CCCCN)NC(=O)[C@H](CC(C)C)NC(=O)[C@H](CCC(=O)O)NC(=O)[C@H](CC(C)C)NC(=O)[C@@H](NC(=O)[C@H](CC(C)C)NC(=O)[C@H](CCCCN)NC(=O)[C@H](CCC(N)=O)NC(=O)[C@H](CCCN=C(N)N)NC(=O)CNC(=O)[C@H](C)N)[C@@H](C)O)C(=O)N[C@@H](C)C(=O)N[C@@H](Cc1c[nH]c2ccccc12)C(=O)O [AGRQKLTLELKEYLRKRGKKAFIAW]
2 | 16 µM (≈ 49 µg/mL) | > 128 µM | 0.25 µM (≈ 0.766 µg/mL) | CC[C@H](C)[C@H](NC(=O)[C@H](CCCN=C(N)N)NC(=O)[C@H](C)NC(=O)[C@H](CCCCN)NC(=O)[C@H](CCCCN)NC(=O)CNC(=O)[C@H](Cc1ccccc1)NC(=O)[C@H](CCCCN)NC(=O)[C@H](CCCN=C(N)N)NC(=O)[C@H](CC(C)C)NC(=O)[C@H](CCC(=O)O)NC(=O)[C@H](CCC(=O)O)NC(=O)[C@H](CCCCN)NC(=O)[C@H](CC(C)C)NC(=O)[C@H](Cc1ccc(O)cc1)NC(=O)[C@H](CC(C)C)NC(=O)[C@@H](NC(=O)[C@H](CC(C)C)NC(=O)[C@H](C)NC(=O)[C@H](CCC(N)=O)NC(=O)[C@H](CCCN=C(N)N)NC(=O)CNC(=O)[C@@H](N)Cc1c[nH]c2ccccc12)[C@@H](C)O)C(=O)N[C@@H](C)C(=O)N[C@@H](Cc1c[nH]c2ccccc12)C(=O)O [WGRQALTLYLKEELRKFGKKARIAW]
3 | 0.25 µM (≈ 0.764 µg/mL) | 8 µM (≈ 24.4 µg/mL) | 0.5 µM (≈ 1.53 µg/mL) | CC[C@H](C)[C@H](NC(=O)[C@H](CCCN=C(N)N)NC(=O)CNC(=O)[C@@H](NC(=O)[C@H](CCCCN)NC(=O)[C@H](CCCN=C(N)N)NC(=O)[C@@H](NC(=O)[C@H](Cc1ccc(O)cc1)NC(=O)[C@H](CCCN=C(N)N)NC(=O)[C@H](CCCN=C(N)N)NC(=O)[C@H](CC(C)C)NC(=O)[C@H](CCC(=O)O)NC(=O)[C@H](CCCCN)NC(=O)[C@H](C)NC(=O)[C@@H](NC(=O)[C@H](CCCN=C(N)N)NC(=O)[C@H](CC(N)=O)NC(=O)[C@@H](NC(=O)[C@H](CCCCN)NC(=O)[C@H](C)N)[C@@H](C)O)[C@@H](C)CC)[C@@H](C)CC)C(C)C)C(=O)N[C@@H](C)C(=O)N[C@@H](CCCN=C(N)N)C(=O)N[C@@H](CCCCN)C(=O)N[C@@H](C)C(=O)N[C@@H](Cc1c[nH]c2ccccc12)C(=O)O [AKTNRIAKELRRYIRKVGRIARKAW]
4 | 8 µM (≈ 24 µg/mL) | 16 µM (≈ 48 µg/mL) | 8 µM (≈ 24 µg/mL) | CC[C@H](C)[C@H](NC(=O)[C@H](CCC(=O)O)NC(=O)[C@H](CCCN=C(N)N)NC(=O)[C@H](CCCN=C(N)N)NC(=O)[C@H](CC(C)C)NC(=O)[C@H](Cc1ccc(O)cc1)NC(=O)[C@H](C)NC(=O)[C@H](CCCCN)NC(=O)[C@@H](NC(=O)[C@@H](NC(=O)[C@H](CCC(N)=O)NC(=O)[C@H](CCCN=C(N)N)NC(=O)CNC(=O)[C@H](C)N)[C@@H](C)O)[C@@H](C)CC)C(=O)N[C@@H](CCCN=C(N)N)C(=O)N[C@@H](CCCCN)C(=O)N[C@@H](CCCN=C(N)N)C(=O)NCC(=O)N[C@@H](CCCN=C(N)N)C(=O)N[C@@H](CCCCN)C(=O)N[C@@H](C)C(=O)N[C@H](C(=O)N[C@H](C(=O)N[C@@H](C)C(=O)N[C@@H](Cc1c[nH]c2ccccc12)C(=O)O)[C@@H](C)CC)C(C)C [AGRQTIKAYLRREIRKRGRKAVIAW]
